Data on 8 molecules can be found in patent US20240317740A1, “NOVEL COMPOUNDS AND THEIR USE” (Debiopharm International S.A., priority 2021, published 2024).

Molecules are shown by their SMILES. ≈ marks a conversion by molar mass, not a printed value.

In one assay the target is A. baumannii FabI (Acinetobacter baumannii, UniProt D0CAD5). The assay is described as follows: Inhibition of FabI enzyme (NADH consumption rate). It is filed as biochemical. The following applies: recombinant FabI, 30° C., pH 7.25. How it is done: Inhibition of Fabl enzyme from Acinetobacter baumannii and Escherichia coli was tested by measuring the rate of NADH consumption (Aabsorbance at 340 nm/min) at 30° C. in 96-well plate format using an automated plate reader in the presence or absence of the test compounds. The assay mixture contained 100 mM Tris-HCl, pH 7.25 (A. baumannii) or 7.5 (E. coli), 100 mM ammonium acetate, 0.02% (A. baumannii) or 0.05% (E. coli) Pluronic F-68, 25 μM crotonyl ACP, 50 μM NADH, […] recombinant Fabl protein, and 7.5% DMSO. Test compounds were added at concentrations ranging from 0.17 to 10,000 nM in a final well volume of 100 μl. This dose-response inhibitory assay was performed using a 10-point, serial dilution series for each test compound. IC50 values for each test compound were assigned from logistical sigmoid curve-fitting of the inhibition dose response curves.

In assay [1] the test system is A. baumannii ATCC BAA1605. Kind of assay: Broth microdilution MIC assay. It counts as cell-based. The following applies: Acinetobacter baumannii, ATCCBAA1605; CA-MHB, 1% DMSO, 35° C., 20 hours. How it is done:
(§1) The antibacterial activity of Fabl inhibitors against select Gram-negative and Gram-positive bacterial species including susceptible and multi-drug resistant A. baumannii, E. coli, K. pneumoniae and S. aureus was tested using the broth microdilution Minimal Inhibitory Concentration (MIC) assay following CLSI guidelines for insoluble compounds. Test articles were serially diluted 2-fold in 100% dimethyl sulfoxide (DMSO) and then diluted 100-fold into cation adjusted Mueller-Hinton broth (CA-MHB) to achieve a 10-point test concentration range in 1% DMSO. Final compound concentrations were 0.016-8 μg/ml for S. aureus or 0.06-32 μg/ml for the Gram-negative species. MIC test plates were then prepared by transferring 100 μl of the final assay medium (test article in CA-MHB, 1% DMSO) into the appropriate wells of a sterile, low binding 96-well polystyrene plate. Direct colony suspension inoculums of the test strains were freshly prepared per CLSI guidelines, and the appropriate test wells were inoculated to achieve a final bacterial cell density of 5×10^5 CFU/ml. Growth control (no test article) and negative control (no bacterial inoculum) wells were also included. Exposure to light was minimized during all stages of assay preparation. MIC test plates were incubated at 35° C. for 20 hours. Bacterial growth was then determined by measuring the optical density at 600 nm (OD600) using a SpectraMax Plus plate-reader spectrophotometer.
For orientation: In broth dilution the organism is exposed to a series of concentrations in liquid medium.

Another assay concerns S. aureus ATCC 29213. Kind of assay: Broth microdilution MIC assay. It counts as cell-based. The following applies: Staphylococcus aureus, ATCC29213; CA-MHB, 1% DMSO, 35° C., 20 hours. How it is done: as §1
For the next assay, the system named is E. coli AG100. Kind of assay: Broth microdilution MIC assay. It is filed as cell-based. The following applies: Escherichia coli, CA-MHB, 1% DMSO, 35° C., 20 hours. The method, then:
as §1

The next assay concerns K. pneumoniae A6030827. Kind of assay: Broth microdilution MIC assay. It counts as cell-based. The following applies: Klebsiella pneumoniae, CA-MHB, 1% DMSO, 35° C., 20 hours. How it is done: as §1

Chain of A. baumannii FabI (D0CAD5 1-288): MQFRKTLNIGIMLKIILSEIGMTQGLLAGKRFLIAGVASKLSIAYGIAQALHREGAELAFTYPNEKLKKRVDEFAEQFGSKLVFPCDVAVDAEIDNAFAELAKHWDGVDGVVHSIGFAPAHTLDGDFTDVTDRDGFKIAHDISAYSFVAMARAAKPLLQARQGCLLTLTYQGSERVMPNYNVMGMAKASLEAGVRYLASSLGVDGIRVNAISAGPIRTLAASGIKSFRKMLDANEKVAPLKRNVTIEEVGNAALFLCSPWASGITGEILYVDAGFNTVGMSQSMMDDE

For orientation: IC50 means the point on the concentration scale where inhibition reaches its midpoint. By MIC is commonly meant the least concentration at which growth counts as inhibited. Read a low MIC as greater potency. For `Cc1oc2ccccc2c1CN(C)C(=O)/C=C/c1cnc2c(c1)CCC(N1CCCC1)C(=O)N2` (single isomer, unassigned) [Compound 25, (S*,E)-N-methyl-N-((2-methylbenzofuran-3-yl)methyl)-3-(8-oxo-7-(pyrrolidin-1-yl)-6,7,8,9-tetrahydro-5H-pyrido[2,3-b]azepin-3-yl)acrylamide], the IC50 at A. baumannii FabI was less than 10 nM. Moreover, the figures for the MIC (in assay [1]; against S. aureus ATCC 29213; in the assay with E. coli AG100) were no more than 4 µg/mL, no more than 4 µg/mL and 8 µg/mL (≈ 17.4 µM), respectively.
For `Cc1oc2ccccc2c1CN(C)C(=O)/C=C/c1cnc2c(c1)CCC(N1CCCC1)C(=O)N2` (centres unmarked) [Compound 15, (E)-N-methyl-N-[(2-methylbenzofuran-3-yl)methyl]-3-(8-oxo-7-pyrrolidin-1-yl-5,6,7,9-tetrahydropyrido[2,3-b]azepin-3-yl)prop-2-enamide], on A. baumannii FabI, the IC50 was less than 10 nM. The MIC in assay [1] was no more than 4 µg/mL; in the assay on S. aureus ATCC 29213, no more than 4 µg/mL; against K. pneumoniae A6030827, 16 µg/mL (≈ 34.9 µM); against E. coli AG100 it was 16 µg/mL (≈ 34.9 µM).
Take `Cc1oc2ccccc2c1CN(C)C(=O)/C=C/c1cnc2c(c1)CCC(N1CC[C@@H](O)C1)C(=O)N2` (stereo in doubt) [Compound 28, (E)-3-((R*)-7-((R)-3-hydroxypyrrolidin-1-yl)-8-oxo-6,7,8,9-tetrahydro-5H-pyrido[2,3-b]azepin-3-yl)-N-methyl-N-((2-methylbenzofuran-3-yl)methyl)acrylamide]: the MIC in assay [1] is no more than 4 µg/mL; in the assay on S. aureus ATCC 29213, no more than 4 µg/mL; with E. coli AG100, 8 µg/mL (≈ 16.9 µM).
For the molecule `Cc1oc2ccccc2c1CN(C)C(=O)/C=C/c1cnc2c(c1)CCC(N(C)C)C(=O)N2` (centres unmarked) [Compound 13, (E)-3-[7-(dimethylamino)-8-oxo-5,6,7,9-tetrahydropyrido[2,3-b]azepin-3-yl]-N-methyl-N-[(2-methylbenzofuran-3-yl)methyl]prop-2-enamide], the IC50 on A. baumannii FabI is less than 10 nM. Besides, the MIC in assay [1] was no more than 4 µg/mL; with S. aureus ATCC 29213, no more than 4 µg/mL; in the assay with K. pneumoniae A6030827, 8 µg/mL (≈ 18.5 µM); against E. coli AG100, 16 µg/mL (≈ 37 µM).
On to `Cc1oc2ccccc2c1CN(C)C(=O)/C=C/c1cnc2c(c1)CCC(C)(N)C(=O)N2` (single isomer, unassigned) [Compound 39, (S*,E)-3-(7-amino-7-methyl-8-oxo-6,7,8,9-tetrahydro-5H-pyrido[2,3-b]azepin-3-yl)-N-methyl-N-((2-methylbenzofuran-3-yl)methyl)acrylamide], for which, at A. baumannii FabI, the IC50 was less than 10 nM. For the same molecule, the MIC (in assay [1]; in the assay on S. aureus ATCC 29213; against E. coli AG100) was no more than 4 µg/mL throughout.
With `Cc1oc2ccccc2c1CN(C)C(=O)/C=C/c1cnc2c(c1)CCC(N1CC[C@@H](O)C1)C(=O)N2` (single isomer, unassigned) [Compound 28, (E)-3-((R*)-7-((R)-3-hydroxypyrrolidin-1-yl)-8-oxo-6,7,8,9-tetrahydro-5H-pyrido[2,3-b]azepin-3-yl)-N-methyl-N-((2-methylbenzofuran-3-yl)methyl)acrylamide], the IC50 at A. baumannii FabI is less than 10 nM.
With `Cc1oc2ccccc2c1CN(C)C(=O)/C=C/c1cnc2c(c1)N[C@H](C)[C@H](N)C(=O)N2` [Compound 23, (E)-3-((2R,3S)-3-amino-2-methyl-4-oxo-2,3,4,5-tetrahydro-1H-pyrido[2,3-b][1,4]diazepin-8-yl)-N-methyl-N-((2-methylbenzofuran-3-yl)methyl)acrylamide], the IC50 on A. baumannii FabI was less than 10 nM. Besides, the MIC was no more than 4 µg/mL in assay [1], no more than 4 µg/mL against S. aureus ATCC 29213, 8 µg/mL (≈ 19.1 µM) in the assay on K. pneumoniae A6030827 and 8 µg/mL (≈ 19.1 µM) against E. coli AG100.
For `CNC1CCc2cc(/C=C/C(=O)N(C)Cc3c(C)oc4ccccc34)cnc2NC1=O` (centres unmarked) [Compound 11, (E)-N-methyl-3-(7-(methylamino)-8-oxo-6,7,8,9-tetrahydro-5H-pyrido[2,3-b]azepin-3-yl)-N-((2-methylbenzofuran-3-yl)methyl)acrylamide], on A. baumannii FabI, the IC50 is less than 10 nM. The MIC in assay [1] was 8 µg/mL (≈ 19.1 µM); with S. aureus ATCC 29213, no more than 4 µg/mL; in the assay on K. pneumoniae A6030827 it was 8 µg/mL (≈ 19.1 µM); against E. coli AG100, 8 µg/mL (≈ 19.1 µM).
